In patent publication US20100111874A1, “METHOD OF CANCER DETECTION AND TREATMENT” (University of Medicine and Dentistry of New Jresey, priority 2007, published 2010):

How the values were obtained:
Format in all cases: cell-based
[1] = system: ZR-75-1 cells stably expressing ISG15 or UbcH8 shRNA; experiment: Clonogenic survival assay
Experimental: Cell survival assays. MTT assay: Cells (3000 cells/well) are plated in 96-well microtiter plates and incubated at 37° C. in a CO2 incubator. For determination of IC50, cells are treated with varying concentrations of CPT for four days. Cells are then incubated with MTT (3-(4,5-dimethylthiazol-2-yl)-2,5-diphenyltetrazolium bromide) for 4 hrs at 37° C. The dye produced by viable cells is dissolved in DMSO and the optical density measured at 570 nm. All assays are performed at least twice in six replicate wells. Clonogenic assay: Cells (100-500 cells/plate) are plated in 6-well tissue culture plates and incubated at 37° C. in a CO2 incubator. Cells are then treated with various concentrations of CPT for 1 hr. Following CPT treatment, cells are washed free of CPT and placed in fresh medium. After 10 days, survived colonies are stained with Methylene blue and counted using the Minicount machine. Cell counting assay: Logarithmically growing cells are treated with various concentrations of CPT for 1 hr. CPT is then removed by washing the plates with CPT-free medium four times. […] Cell survival is determined by counting cells using the Coulter counter after trypsinization.
Example No. 3. […] Cell lysates of ZR-75-1 clones expressing either control shRNA (lane #1) or ISG15 shRNA (lanes #2) are analyzed by 15% SDS-PAGE. […] Equal protein loading is assessed by re-probing the same membrane with anti-tubulin antibody (lower panel). […] Equal protein loading is assessed by re-probing the same membrane blot with anti-tubulin antibody (lower panels).
Example No. 4. […] Cell lysates prepared from ZR-75-1 clones expressing either control shRNA (lane #1) or UbcH8 shRNA (lanes #2 and 3, from two independent clones), and the purified UbcH8 protein (lane #4) are analyzed by 15% SDS-PAGE. […] Equal protein loading is assessed by re-probing the same membrane with anti-tubulin antibody (lower panels). […] Cell lysates prepared from ZR-75-1 clones expressing either control shRNA (lane #1) or UbcH8 shRNA (lanes #2 and 3, two independent clones), and the purified UbcH8 protein (lane #4) are analyzed by 15% SDS-PAGE. […]

[2] = system: ZR-75-1 and BT474 breast cancer cells; experiment: Cell counting assay of CPT sensitivity; details: ZR-75-1 vs BT474 cells; one hr acute exposure
Experimental: Breast cancer ZR-75-1 and BT474 cells are treated with CPT for 1 hr followed by incubation in CPT-free medium for 3 days. Cell survival is determined by cell counting using a Coulter counter as described in Materials and Methods.

MCF7 breast cancer cells = experiment: MTT assay, CPT IC50; details: Homo sapiens, 96 h, CPT continuously for 4 days
Experimental: (§1) Cell survival assays. MTT assay: Cells (3000 cells/well) are plated in 96-well microtiter plates and incubated at 37° C. in a CO2 incubator. For determination of IC50, cells are treated with varying concentrations of CPT for four days. Cells are then incubated with MTT (3-(4,5-dimethylthiazol-2-yl)-2,5-diphenyltetrazolium bromide) for 4 hrs at 37° C. The dye produced by viable cells is dissolved in DMSO and the optical density measured at 570 nm. All assays are performed at least twice in six replicate wells. Clonogenic assay: Cells (100-500 cells/plate) are plated in 6-well tissue culture plates and incubated at 37° C. in a CO2 incubator. Cells are then treated with various concentrations of CPT for 1 hr. Following CPT treatment, cells are washed free of CPT and placed in fresh medium. After 10 days, survived colonies are stained with Methylene blue and counted using the Minicount machine. Cell counting assay: Logarithmically growing cells are treated with various concentrations of CPT for 1 hr. CPT is then removed by washing the plates with CPT-free medium four times. Washed cells are allowed to grow in CPT-free medium for 4 days. Cell survival is determined by counting cells using the Coulter counter after trypsinization.
(§2) Example No. 6. […] Panel A, formation of cleavable complexes in MCF7 and MCF7/RC breast cancer cells. […]

[3] = system: MCF7/RC breast cancer cells; experiment: MTT assay, CPT IC50; details: Homo sapiens, 96 h; MCF7/RC low-level CPT-resistant clone; CPT continuously for 4 days
Experimental: as §1, §2

CC[C@@]1(O)C(=O)OCc2c1cc1n(c2=O)Cc2cc3ccccc3nc2-1 [CPT, camptothecin] was tested, and the “resistance to CPT, clonogenic survival” value ([1]; ZR/ISG15-shRNA1 vs control-shRNA cells, one hr acute exposure) was “much more resistant”, the “resistance to CPT, clonogenic survival” value ([1]; ZR/UbcH8-shRNA1 vs ZR/control-shRNA2, one-hr acute CPT exposure) was “much more resistant” and the “resistance to CPT, clonogenic survival” value ([1]; ZR/UbcH8-shRNA2 vs ZR/control-shRNA2, one-hr acute CPT exposure) was “much more resistant”. The “fold greater sensitivity to CPT based on IC50 values” [2] was “greater than 50 fold”, the IC50 (MCF7 breast cancer cells) was 3.5 nM and the IC50 [3] was 30 nM.
